Data as given in BindingDB's records for doi:10.7270/Q2MS3R62 (Burnham Center For Chemical Genomics, 2007).

Target: Heat shock cognate 71 kDa protein (Homo sapiens, UniProt P11142)
Sequence (P11142 whole entry): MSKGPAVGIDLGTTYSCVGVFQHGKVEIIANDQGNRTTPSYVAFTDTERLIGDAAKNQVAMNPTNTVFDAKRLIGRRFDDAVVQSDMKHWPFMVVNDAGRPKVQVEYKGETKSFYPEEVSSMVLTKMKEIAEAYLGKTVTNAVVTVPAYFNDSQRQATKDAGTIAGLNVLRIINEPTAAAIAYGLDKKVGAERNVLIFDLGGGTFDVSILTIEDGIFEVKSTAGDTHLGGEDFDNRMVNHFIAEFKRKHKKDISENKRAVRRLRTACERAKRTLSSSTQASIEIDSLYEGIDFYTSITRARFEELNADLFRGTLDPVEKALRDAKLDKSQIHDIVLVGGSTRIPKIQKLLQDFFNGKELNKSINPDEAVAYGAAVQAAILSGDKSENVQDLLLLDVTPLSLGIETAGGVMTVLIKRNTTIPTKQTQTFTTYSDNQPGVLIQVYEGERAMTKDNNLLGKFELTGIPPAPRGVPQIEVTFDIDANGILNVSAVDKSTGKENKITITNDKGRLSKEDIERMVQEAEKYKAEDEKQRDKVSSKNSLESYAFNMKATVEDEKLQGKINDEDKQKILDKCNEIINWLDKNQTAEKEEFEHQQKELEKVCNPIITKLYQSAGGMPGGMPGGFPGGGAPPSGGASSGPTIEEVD

IC50 | Compound
999 µM | CC(=O)N1CCC2(CC1)c1c(n[nH]c1C)OC(=N)C2C#N (configuration not stated) [6-azanyl-1'-ethanoyl-3-methyl-spiro[2H-pyrano[2,3-c]pyrazole-4,4'-piperidine]-5-carbonitrile]
999 µM | C=c1[nH]n(-c2cccc(C(=O)O)c2)c(=O)c1=CC=Cc1ccco1 [SMR000113614]
